What follows are molecules tested against Bruton's Tyrosine Kinase (BTK), inactivated state (Homo sapiens (Human), UniProt Q06187) (assay: BTK inhibition TR-FRET competition assay). Settings: TR-FRET competition with Kinase Tracer 178, 18-24 h at 14° C.
Format: binding
Protocol: This BTK competition assay measures compound potency (IC50) for the inactivated state of Bruton's Tyrosine Kinase using FRET (Förster/Flouresence Resonance Energy Transfer) technology. The BTK-Eu complex was incubated on ice one hour prior to use at a starting concentration of 50 nM BTK-BioeaseTM: 10 nM Eu-streptavidin (Perkin-Elmer Catalog# AD0062). The assay buffer consisted of 20 mM HEPES (pH 7.15), 0.1 mM DTT, 10 mM MgCl2, 0.5 mg/ml BSA with 3% Kinase Stabilizer (Fremont Biosolutions, Catalog #STB-K02). After 1 h, the reaction mixture from above was diluted 10 fold in assay buffer to make 5 nM BTK: 1 nM Eu-Streptavidin complex (donor fluorophore). 18 μl of a mixture of 0.11 nM BTK-Eu and 0.11 nM Kinase Tracer 178 (Invitrogen, Catalog #PV5593,) with BTK-Eu alone as no negative control, was then dispensed into 384-well flat bottom plates (Greiner, 784076). Compounds to be tested in assay were prepared as 10× concentrations and serial dilution in half-log increments was performed in DMSO so as to generate 10 point curves. To initiate the FRET reaction, compounds prepared as 10× stock in DMSO was added to the plates and the plates were incubated 18-24 h at 14° C. After the incubation the plates were read on a BMG Pherastar Fluorescent plate reader (or equivalent) and used to measure the emission energy from the europium donor fluorophore (620 nm emission) and the FRET (665 nm emission). The negative control well values were averaged to obtain the mean minimum. The positive “no inhibitor” control wells were averaged to obtain the mean maximum. […] The mean IC50 and standard deviation will be derived from duplicate curves (singlet inhibition curves from two independent dilutions) using Microsoft Excel.

Sequence of Bruton's Tyrosine Kinase (BTK), inactivated state (Q06187 whole entry): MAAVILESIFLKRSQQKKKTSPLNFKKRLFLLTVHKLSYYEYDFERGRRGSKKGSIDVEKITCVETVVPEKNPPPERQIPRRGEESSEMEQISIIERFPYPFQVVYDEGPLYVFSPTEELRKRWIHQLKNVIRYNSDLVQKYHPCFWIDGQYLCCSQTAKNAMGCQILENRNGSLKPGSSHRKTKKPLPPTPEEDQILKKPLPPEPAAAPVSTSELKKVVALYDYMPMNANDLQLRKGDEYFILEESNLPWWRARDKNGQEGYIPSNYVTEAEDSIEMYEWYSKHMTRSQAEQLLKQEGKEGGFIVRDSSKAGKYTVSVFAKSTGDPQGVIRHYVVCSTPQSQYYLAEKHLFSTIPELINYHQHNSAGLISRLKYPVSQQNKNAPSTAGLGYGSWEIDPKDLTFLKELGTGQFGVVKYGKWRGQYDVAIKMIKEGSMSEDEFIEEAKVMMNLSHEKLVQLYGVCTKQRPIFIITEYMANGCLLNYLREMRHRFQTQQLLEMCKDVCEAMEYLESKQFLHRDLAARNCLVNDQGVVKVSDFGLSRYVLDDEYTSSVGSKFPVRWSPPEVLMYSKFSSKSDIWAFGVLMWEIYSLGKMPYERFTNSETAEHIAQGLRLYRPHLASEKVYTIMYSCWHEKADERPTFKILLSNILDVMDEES

IC50 [µM] | Compound
0.0453 | O=C(NC1CCCC(Nc2ncnc3[nH]cnc23)C1)c1ccccc1 (stereo not shown) [Compound 6]
9.57 | CC(C)(C)c1ccc(C(=O)NC2CCCC(Nc3ncnc4[nH]cnc34)C2)cc1 (stereo not shown) [Compound 1, 4-tert-Butyl-N-[3-(7H-purin-6-ylamino)-cyclohexyl]-benzamide]
0.0569 | Cn1cc(Nc2nc(NC3CCCC(NC(=O)c4ccc(C(C)(C)C)cc4)C3)c3nc[nH]c3n2)cn1 (stereo not shown) [Compound 5, 4-tert-butyl-N-{3-[2-(1-methyl-1H-pyrazol-4-ylamino)-9H-purin-6-ylamino]-cyclohexyl}-benzamide]
100 | O=C(NCc1cccc(Cl)c1)C1CCCC(Nc2ncnc3[nH]cnc23)C1 (stereo not shown) [Compound 2, 3-(9H-Purin-6-ylamino)-cyclohexanecarboxylic acid 3-chloro-benzylamide]
40.6 | CC1CCCC(Nc2nc(Nc3cnn(C)c3)nc3[nH]cnc23)C1 (stereo not shown) [Compound 4, N*6*-(3-Methyl-cyclohexyl)-N*2*-(1-methyl-1H-pyrazol-4-yl)-9H-purine-2,6-diamine]
0.109 | CC(C)(C)OC(=O)NC1CCCC(C(=O)O)C1 (stereo not shown) [Compound 7]
2.82 | Cn1cc(Nc2nc(NC3CCCCC3)c3nc[nH]c3n2)cn1 [Compound 3, N*6*-Cyclohexyl-N*2*-(1-methyl-1H-pyrazol-4-yl)-9H-purine-2,6-diamine]

— patent US9469644B2, “Inhibitors of Bruton's tyrosine kinase” (Hoffmann-La Roche Inc., priority 2013, dated 2016)
